Reference: a compilation of properties of binary mixtures (doi:10.1016/j.fluid.2019.112304)

Assay: xn = mol fraction of the nth substance listed
Settings: 101 kPa

CCCCO + CCCCCCCCCCCC[N+](C)(C)Cc1ccccc1.O=S(=O)([N-]S(=O)(=O)C(F)(F)F)C(F)(F)F
x2 = 0
Settings | viscosity [mPa·s]
303.15 K | 2.23
318.15 K | 1.56
323.15 K | 1.42
328.15 K | 1.27
333.15 K | 1.11
338.15 K | 1.01

CCCCCCCCCCCC[N+](C)(C)Cc1ccccc1.O=S(=O)([N-]S(=O)(=O)C(F)(F)F)C(F)(F)F + CCCCO
viscosity [mPa·s]
Settings | x1 = 0.1507 | x1 = 0.3015 | x1 = 0.4494 | x1 = 0.594 | x1 = 0.7485 | x1 = 0.9164 | x1 = 1
298.15 K | 15.3 | 43.6 | 103 | 208 | 505 | 1066 | –
303.15 K | 12.4 | – | 78 | 153 | 362 | 748 | 970
308.15 K | 10.4 | – | 60.1 | 115 | 266 | 532 | –
313.15 K | 8.75 | 22 | 47.2 | 86.1 | – | 386 | 485
318.15 K | – | 18.1 | – | 69.1 | 150 | 285 | 351
323.15 K | 6.4 | 14.9 | 30.4 | 57.2 | 117 | 210 | 261
328.15 K | 5.54 | 12.5 | 24.9 | 46.8 | 91.6 | – | 197
333.15 K | – | 10.5 | – | – | 76.8 | 125 | 152
338.15 K | 4.24 | 8.87 | 17.2 | 33.8 | – | 99 | –
343.15 K | 3.75 | 7.58 | 14.6 | 29 | – | 79.2 | 91.8
348.15 K | 3.43 | 6.53 | 12.2 | – | 46.3 | 68 | 77.5

c1ccsc1 + N#C[C-](C#N)C#N.OCC[n+]1ccccc1
x2 = 0
Settings | viscosity [mPa·s]
293.15 K | 0.653
298.15 K | 0.615
308.15 K | 0.545
313.15 K | 0.518
318.15 K | 0.491
323.15 K | 0.464
328.15 K | 0.441
338.15 K | 0.4
343.15 K | 0.382

N#C[C-](C#N)C#N.OCC[n+]1ccccc1 + c1ccsc1
viscosity [mPa·s]
Settings | x1 = 0.4042 | x1 = 0.4996 | x1 = 0.6 | x1 = 0.7041 | x1 = 0.8044 | x1 = 0.901 | x1 = 1
293.15 K | 19.9 | 29.5 | 40.2 | – | 67 | 91.2 | –
298.15 K | 16.3 | 23.6 | 31.8 | 41.2 | 51.6 | – | 97
303.15 K | 13.6 | – | 25.5 | 32.7 | 40.1 | – | 71.8
308.15 K | 11.5 | 15.8 | 20.7 | 26.1 | 31.6 | 39.6 | 54.6
313.15 K | 10 | 13.4 | 17.2 | 21.2 | 25.6 | 31.6 | 42.3
318.15 K | 8.78 | 11.4 | 14.4 | 17.7 | – | 25.7 | 34
323.15 K | 7.81 | 9.87 | – | 14.8 | 17.6 | 21.3 | 27.8
328.15 K | 7.01 | 8.67 | 10.6 | – | 14.8 | – | 22.9
333.15 K | 6.15 | – | – | 10.9 | 12.8 | 15.2 | 19.3
338.15 K | – | – | 7.86 | – | 11.1 | 13.1 | 16.4
343.15 K | 4.68 | – | 6.99 | 8.4 | – | 11.5 | 14
348.15 K | 4.17 | 5.12 | 6.2 | 7.5 | 8.89 | 10.3 | 12.3
